Assays:
Calu-1 (lung) = experiment: CellTiterGlo Cell Proliferation Assay (2D), Calu-1; format: cell-based; conditions: Homo sapiens, 96 hours
Description: (§1) The purpose of this assay is to evaluate the growth of KRas G12C mutant tumor lines following treatment with a test compound. A panel of tumor cell lines harboring KRas G12C or other KRas mutations are collected (Table 25). All cell lines are from ATCC or other sources indicated.
(§2) Typically cells are cultured in RPMI1640 or Dulbecco's modified Eagle's medium (DMEM, GIBCO) supplemented with 10% FBS (GIBCO, Invitrogen). […] The cells are treated with compound for 96 hours, and then are analyzed for viability using the CellTiterGlo® Luminescent Cell Viability Assay® (Promega #G7572 for 2D) according to manufacturer's instructions and an EnVision™ plate reader. Nonlinear regression and sigmoidal dose-response curves are used to calculate the half maximal inhibitory concentration (IC50) with GraphPad Prism 4® software.

SW1573 (lung) = experiment: CellTiterGlo Cell Proliferation Assay (2D), SW1573; format: cell-based; conditions: Homo sapiens, 96 hours
Description: as §1, §2

KYSE-410 (esoph) = experiment: CellTiterGlo Cell Proliferation Assay (2D), KYSE-410; format: cell-based; conditions: Homo sapiens, 96 hours
Description: as §1, §2

H2030 (lung) = experiment: CellTiterGlo Cell Proliferation Assay (2D), H2030; format: cell-based; conditions: Homo sapiens, NCI-H2030, 96 hours
Description: as §1, §2

SW756 (cervix) = experiment: CellTiterGlo Cell Proliferation Assay (2D), SW756; format: cell-based; conditions: Homo sapiens, 96 hours
Description: as §1, §2

UM-UC-3 (bladder) = experiment: CellTiterGlo Cell Proliferation Assay (2D), UM-UC-3; format: cell-based; conditions: Homo sapiens, UMUC3, 96 hours
Description: as §1, §2

H1792 (lung) = experiment: CellTiterGlo Cell Proliferation Assay (2D), H1792; format: cell-based; conditions: Homo sapiens, NCI-H1792, 96 hours
Description: as §1, §2

HCC44 (lung) = experiment: CellTiterGlo Cell Proliferation Assay (2D), HCC44; format: cell-based; conditions: Homo sapiens, 96 hours
Description: as §1, §2

pERK = experiment: In vivo pharmacodynamic effect, pERK Meso Scale Discovery ELISA of tumor lysates, lung cancer H358 xenograft model; design: species or system mouse; conditions: Mus musculus, NCI-H358, po, 8 h, H358 xenograft mice, 8 hours, read-out: % Inhibition of pERK
Description: The purpose of these assays is to evaluate in vivo target inhibition of an orally administered test compound. Human lung cancer H358 cells, or pancreatic cancer MiaPaca-2 cells, are implanted into nude mice xenograft tumor models. H358 or MiaPaca-2 cells (10×106 in a 1:1 Matrigel® mix, 0.2 mL total volume) are implanted by subcutaneous injection in hind leg of nude female mice (Harlan Laboratories). […] Treatment is initiated with oral administration (gavage) of a test compound or vehicle (20% Captisol®, 25 mM phosphate, pH 2.0 in 0.2 mL) when the tumor size reaches approximately 300 mg.
For in vivo target inhibition and PD analysis, tumors are ground by mortar and pestle on dry ice and tumor fragments are added to 800 μL of lysis buffer containing 1% Triton™ X-100, 25 mM Tris pH7.5, 150 mM sodium chloride, 1 mM EDTA, and 1 mM EGTA with Halt protease and phosphatase inhibitor cocktail (Thermo Scientific, cat. no. 1861281) in lysing matrix D tubes (MP Biomedical®, cat. no. 6913-500) with one additional large bead (MP Biomedical® ¼″ ceramic sphere bead cat. no. 6540-412) per tube. Tumor fragments are homogenized in a Thermo Bio101® fast prep (FP120) at setting 4 for […] while cold for a total of 2 times. Lysates are spun at 14,000 rpm for 10 minutes at 4° C. to clarify. Protein estimation is done on the lysate supernatant using a BioRad Dc® protein assay and lysates are diluted in complete lysis/binding buffer from the Ras GTPase Chemi ELISA Kit® (Active Motif, cat. no. 52097). The active KRas ELISA is performed as follows: glutathione-coated ELISA wells are incubated with diluted RAF1-GST in complete lysis/binding buffer for 1 hour at 4° C. with gentle agitation. Wells are washed 3 times with wash buffer and 100 μg of lysates are added to each well and incubated at ambient temperature for 1 hour with mild agitation. The wells are washed an additional 3 times, then primary antibody, diluted in antibody binding buffer, is added to each well. The plates are incubated for 1 hour. The wells are washed 3 more times before adding HRP-conjugated secondary antibody, diluted in antibody binding buffer, to each well. The plates are incubated at ambient temperature for 1 hour. ELISA wells are washed 4 times, chemiluminescent reagent is added and then luminescence is read. For pERK Meso Scale Discovery ELISA, 25 μg of protein containing 0.1% SDS is used; Meso Scale Discovery Whole Cell Lysate Kit for pERK is provided by Meso Scale Discovery.
The purpose of this assay is to evaluate the dose dependent in vivo target inhibition and pharmacodynamic effects in a lung cancer model. The test compound is dosed in lung cancer H358 mouse xenograft model at a dose range from 12.5 to 100 mg/kg. The tumor samples are collected 8 hours post a single dose. The tumor lysates are prepared and the inhibition of pERKand active KRas is measured as described above.
The purpose of this assay is to evaluate the time dependent in vivo target inhibition and pharmacodynamic effects in a lung cancer model. […] After a single dose, the tumor samples are harvested at 2, 4, 8, 12 and 24 hour post doing. The tumor lysates are prepared and the inhibition of pERK and active KRas is measured as described above.

SW1463 (colon) = experiment: CellTiterGlo Cell Proliferation Assay (2D), SW1463; format: cell-based; conditions: Homo sapiens, 96 hours
Description: as §1, §2

MiaPaca-2 (pancr) = experiment: CellTiterGlo Cell Proliferation Assay (2D), MiaPaca-2; format: cell-based; conditions: Homo sapiens, MIA PaCa-2, 96 hours
Description: as §1, §2

A549 (lung) = experiment: CellTiterGlo Cell Proliferation Assay (2D), A549 (KRas G12S); format: cell-based; conditions: Homo sapiens, A549 (lung, KRas G12S), 2D, 96 hours
Description: as §1, §2

LU99 (lung) = experiment: CellTiterGlo Cell Proliferation Assay (2D), LU99; format: cell-based; conditions: Homo sapiens, Lu-99, 96 hours
Description: as §1, §2

H2122 (lung) = experiment: CellTiterGlo Cell Proliferation Assay (2D), H2122; format: cell-based; conditions: Homo sapiens, NCI-H2122, 96 hours
Description: as §1, §2

Compound: C=CC(=O)N1CCN2C(=O)c3cc(F)c(-c4cccc5sc(N)c(C#N)c45)c(Cl)c3OCC[C@H]2C1 [Example 34, 4-[(13aS)-10-Chloro-8-fluoro-6-oxo-2-prop-2-enoyl-1,3,4,12,13,13a-hexahydropyrazino[2,1-d][1,5]benzoxazocin-9-yl]-2-amino-benzothiophene-3-carbonitrile]
- IC50 (Calu-1 (lung)): 1140 nM
- inhibition at 10 µM (Calu-1 (lung); 10 μM): 50.6%
- IC50 (SW1573 (lung)): 7820 nM
- inhibition at 10 µM (SW1573 (lung); 10 μM): 60.8%
- IC50 (KYSE-410 (esoph)): > 10000 nM
- inhibition at 10 µM (KYSE-410 (esoph); 10 μM): 63.2%
- IC50 (H2030 (lung)): > 10000 nM
- inhibition at 10 µM (H2030 (lung); 10 μM): 41.1%
- IC50 (SW756 (cervix)): 1080 nM
- inhibition at 10 µM (SW756 (cervix); 10 μM): 56.9%
- IC50 (UM-UC-3 (bladder)): 510 nM
- inhibition at 10 µM (UM-UC-3 (bladder); 10 μM): 56.1%
- IC50 (H1792 (lung)): 4350 nM
- inhibition at 10 µM (H1792 (lung); 10 μM): 56.7%
- IC50 (HCC44 (lung)): > 10000 nM
- inhibition at 10 µM (HCC44 (lung); 10 μM): 41%
- inhibition at 12.5 mg/kg (pERK; single oral dose 12.5 mg/kg): 26.9%
- inhibition at 25 mg/kg (pERK; single oral dose 25 mg/kg): 53.2%
- inhibition at 50 mg/kg (pERK; single oral dose 50 mg/kg): 54%
- inhibition at 100 mg/kg (pERK; single oral dose 100 mg/kg): 74.8%
- IC50 (SW1463 (colon)): 4 nM
- inhibition at 10 µM (SW1463 (colon); 10 μM): 90.1%
- IC50 (MiaPaca-2 (pancr)): 10 nM
- inhibition at 10 µM (MiaPaca-2 (pancr); 10 μM): 82.9%
- IC50 (A549 (lung)): > 10000 nM
- inhibition at 10 µM (A549 (lung); 10 μM, read-out: % inh. @ 10 μM): 18.8%
- IC50 (LU99 (lung)): 201 nM
- inhibition at 10 µM (LU99 (lung); 10 μM): 91.9%
- IC50 (H2122 (lung)): 660 nM
- inhibition at 10 µM (H2122 (lung); 10 μM): 78.1%

— patent publication US20230339968A1, “KRAS Gl2C INHIBITORS” (Eli Lilly and Company, priority 2019, published 2023)
